For `C=CCNC(=S)Nc1cnc2ccc(-c3ccc(O)c(OC)c3)nc2n1` [Compound 521, 1-Allyl-3-[6-(4-hydroxy-3-methoxy-phenyl)-pyrido[2,3-b]pyrazin-3-yl]-thiourea], which melting point is on record?
The melting point was 261 to 262 °C.

Which melting point does the source give for `CCNC(=O)Nc1cnc2ccc(-c3cc(C)c(OC)c(C)c3)nc2n1` [Compound 586, 1-Ethyl-3-[6-(4-methoxy-3,5-dimethyl-phenyl)-pyrido[2,3-b]pyrazin-3-yl]-urea] here?
The melting point was 240 to 241 °C.

With `CCNC(=O)Nc1ccc2ncc(-c3cccc(C)c3C)nc2n1` [Compound 107, 1-[3-(2,3-Dimethyl-phenyl)-pyrido[2,3-b]pyrazin-6-yl]-3-ethyl-urea] as the compound, how does the melting point read?
The melting point was 260 °C.

With `CCNC(=O)Nc1ccc2ncc(Nc3cccc(N(C)C)c3)nc2n1` [Compound 374, 1-[3-(3-Dimethylamino-phenylamino)-pyrido[2,3-b]pyrazin-6-yl]-3-ethyl-urea] as the compound, how does the melting point read?
The melting point was 215 °C.

Which melting point does the source give for `CCNC(=O)Nc1cnc2ccc(-c3ccc(C)c(N)c3)nc2n1` [Compound 180, 1-[6-(3-Amino-4-methyl-phenyl)-pyrido[2,3-b]pyrazin-3-yl]-3-ethyl-urea] here?
The melting point was > 320 °C.

Which melting point does the source give for `CCNC(=S)Nc1ccc2ncc(Nc3cc(Cl)c(Cl)c(Cl)c3)nc2n1` [Compound 465, 1-Ethyl-3-[3-(3,4,5-trichloro-phenylamino)-pyrido[2,3-b]pyrazin-6-yl]-thiourea] here?
The melting point was 277 °C.

For `COc1cc(-c2ccc3ncc(NC(=O)NC(C)C)nc3n2)ccc1O` [Compound 19, 1-[6-(4-Hydroxy-3-methoxy-phenyl)-pyrido[2,3-b]pyrazin-3-yl]-3-isopropyl-urea], which melting point is on record?
The melting point was 212 to 214 °C.

With `C=CCNC(=O)Nc1cnc2ccc(-c3cc(C)c(O)c(C)c3)nc2n1` [Compound 587, 1-Allyl-3-[6-(4-hydroxy-3,5-dimethyl-phenyl)-pyrido[2,3-b]pyrazin-3-yl]-urea] as the compound, how does the melting point read?
The melting point was 210 to 212 °C.

For `COc1ccc(-c2ccc3ncc(NC(=O)NCCc4ccccc4)nc3n2)cc1OC` [Compound 577, 1-[6-(3,4-Dimethoxy-phenyl)-pyrido[2,3-b]pyrazin-3-yl]-3-phenethyl-urea], which melting point is on record?
The melting point was 254 to 257 °C.

With `CCNC(=S)Nc1cnc2ccc(-c3cc(OC)c(OC)c(OC)c3)nc2n1` [Compound 650, 1-Ethyl-3-[6-(3,4,5-trimethoxy-phenyl)-pyrido[2,3-b]pyrazin-3-yl]-thiourea] as the compound, how does the melting point read?
The melting point was 218 to 219 °C.

For `CCNC(=O)Nc1cnc2ccc(-c3ccc(C(C)=O)s3)nc2n1` [Compound 183, 1-[6-(5-Acetyl-thiophen-2-yl)-pyrido[2,3-b]pyrazin-3-yl]-3-ethyl-urea], which melting point is on record?
Its melting point is > 250 °C.

With `COc1cc(Nc2cnc3ccc(NC(=S)NC4CCCCC4)nc3n2)cc(OC)c1OC` [Compound 690, 1-Cyclohexyl-3-[3-(3,4,5-trimethoxy-phenylamino)-pyrido[2,3-b]pyrazin-6-yl]-thiourea] as the compound, how does the melting point read?
Its melting point is 248 °C.

With `CCNC(=O)Nc1ccc2ncc(-c3cccc(C#N)c3)nc2n1` [Compound 114, 1-[3-(3-Cyano-phenyl)-pyrido[2,3-b]pyrazin-6-yl]-3-ethyl-urea] as the compound, how does the melting point read?
Its melting point is 253 to 257 °C.

For `O=C(Nc1ccc(F)cc1)Nc1cnc2ccc(-c3cc(Cl)c(O)c(Cl)c3)nc2n1` [Compound 559, 1-[6-(3,5-Dichloro-4-hydroxy-phenyl)-pyrido[2,3-b]pyrazin-3-yl]-3-(4-fluoro-phenyl)-urea], which melting point is on record?
The melting point was 289 to 291 °C.

With `CCNC(=O)Nc1ccc2ncc(-c3ccc(F)c(F)c3)nc2n1` [Compound 95, 1-[3-(3,4-Difluoro-phenyl)-pyrido[2,3-b]pyrazin-6-yl]-3-ethyl-urea] as the compound, how does the melting point read?
Its melting point is 259 to 262 °C.

For `COc1cc(Nc2cnc3ccc(NC(=S)NCCCc4ccccc4)nc3n2)cc(OC)c1OC` [Compound 704, 1-(3-Phenyl-propyl)-3-[3-(3,4,5-trimethoxy-phenylamino)-pyrido[2,3-b]pyrazin-6-yl]-thiourea], which melting point is on record?
Its melting point is 195 to 198 °C.

Which melting point does the source give for `CCNC(=O)Nc1cnc2ccc(-c3cc(Cl)c(O)c(Cl)c3)nc2n1` [Compound 9, 1-[6-(3,5-Dichloro-4-hydroxy-phenyl)-pyrido[2,3-b]pyrazin-3-yl]-3-ethyl-urea] here?
The melting point was > 300 °C.

For `CCNC(=S)Nc1ccc2ncc(Nc3ccc(C)c(OC)c3)nc2n1` [Compound 162, 1-Ethyl-3-[3-(3-methoxy-4-methyl-phenylamino)-pyrido[2,3-b]pyrazin-6-yl]-thiourea], which melting point is on record?
Its melting point is 288 °C.

Which melting point does the source give for `Cc1cc(-c2ccc3ncc(NC(=O)NC4CCCCC4)nc3n2)cc(C)c1O` [Compound 584] here?
Its melting point is 247 to 250 °C.

For `CCNC(=O)Nc1ccc2ncc(-c3cccc(OCC)c3F)nc2n1` [Compound 146, 1-[3-(3-Ethoxy-2-fluoro-phenyl)-pyrido[2,3-b]pyrazin-6-yl]-3-ethyl-urea], which melting point is on record?
Its melting point is 202 to 204 °C.

For `C=CCNC(=O)Nc1cnc2ccc(-c3ccc(OC)c(OC)c3)nc2n1` [Compound 575, 1-Allyl-3-[6-(3,4-dimethoxy-phenyl)-pyrido[2,3-b]pyrazin-3-yl]-urea], which melting point is on record?
The melting point was 236 to 238 °C.

Which melting point does the source give for `CCNC(=S)Nc1cnc2ccc(Nc3ccc(C)c(OC)c3)nc2n1` [Compound 210, 1-Ethyl-3-[6-(3-methoxy-4-methyl-phenylamino)-pyrido[2,3-b]pyrazin-3-yl]-thiourea] here?
The melting point was 148 °C.

For `CCCCNC(=O)Nc1cnc2ccc(-c3ccc(O)c(OC)c3)nc2n1` [Compound 631, 1-Butyl-3-[6-(4-hydroxy-3-methoxy-phenyl)-pyrido[2,3-b]pyrazin-3-yl]-urea], which melting point is on record?
Its melting point is 223 to 226 °C.

For `CCNC(=O)Nc1cnc2ccc(Nc3ccccc3)nc2n1` [Compound 13, 1-Ethyl-3-(6-phenylamino-pyrido[2,3-b]pyrazin-3-yl)-urea], which melting point is on record?
Its melting point is 202 °C.

With `CCNC(=O)Nc1cnc2ccc(-c3ccc(N)c(OC)c3)nc2n1` [Compound 2, 1-[6-(4-Amino-3-methoxy-phenyl)-pyrido[2,3-b]pyrazin-3-yl]-3-ethyl-urea] as the compound, how does the melting point read?
Its melting point is > 310 °C.

Which melting point does the source give for `CCNC(=O)Nc1ccc2ncc(-c3ccc(N)c([N+](=O)[O-])c3)nc2n1` [Compound 78, 1-[3-(4-Amino-3-nitro-phenyl)-pyrido[2,3-b]pyrazin-6-yl]-3-ethyl-urea] here?
Its melting point is > 350 °C.

Which melting point does the source give for `CCNC(=O)Nc1ccc2ncc(-c3ccc(NC(=O)CCC(=O)OC)cc3)nc2n1` [Compound 76, N-{4-[6-(3-Ethyl-ureido)-pyrido[2,3-b]pyrazin-3-yl]-phenyl}-succinamic acid methyl ester] here?
The melting point was 253 °C.

Which melting point does the source give for `C=CCNC(=S)Nc1ccc2ncc(Nc3cc(OC)c(OC)c(OC)c3)nc2n1` [Compound 693, 1-Allyl-3-[3-(3,4,5-trimethoxy-phenylamino)-pyrido[2,3-b]pyrazin-6-yl]-thiourea] here?
The melting point was 230 to 234 °C.

With `CCNC(=O)Nc1ccc2ncc(-c3cnc(N)nc3)nc2n1` [Compound 72, 1-[3-(2-Amino-pyrimidin-5-yl)-pyrido[2,3-b]pyrazin-6-yl]-3-ethyl-urea] as the compound, how does the melting point read?
Its melting point is > 300 °C.

Which melting point does the source give for `COc1cc(-c2ccc3ncc(NC(=O)NC4CCC(C)CC4)nc3n2)ccc1O` (stereo not shown) [Compound 612, 1-[6-(4-Hydroxy-3-methoxy-phenyl)-pyrido[2,3-b]pyrazin-3-yl]-3-(4-methyl-cyclohexyl)-urea] here?
Its melting point is 272 to 273 °C.

With `COc1cc(-c2ccc3ncc(NC(=O)Nc4cccc([N+](=O)[O-])c4)nc3n2)ccc1O` [Compound 618, 1-[6-(4-Hydroxy-3-methoxy-phenyl)-pyrido[2,3-b]pyrazin-3-yl]-3-(3-nitro-phenyl)-urea] as the compound, how does the melting point read?
Its melting point is 274 to 276 °C.

For `CCNC(=S)Nc1cnc2ccc(Nc3cccc(OC)c3)nc2n1` [Compound 221, 1-Ethyl-3-[6-(3-methoxy-phenylamino)-pyrido[2,3-b]pyrazin-3-yl]-thiourea], which melting point is on record?
The melting point was 189 °C.

With `CCNC(=S)Nc1ccc2ncc(-c3ccc(C)cc3)nc2n1` [Compound 124, 1-Ethyl-3-(3-p-tolyl-pyrido[2,3-b]pyrazin-6-yl)-thiourea] as the compound, how does the melting point read?
The melting point was 246 °C.

With `CCNC(=O)Nc1ccc2ncc(-c3ccccc3C)nc2n1` [Compound 105, 1-Ethyl-3-(3-o-tolyl-pyrido[2,3-b]pyrazin-6-yl)-urea] as the compound, how does the melting point read?
Its melting point is 218 to 220 °C.

Which melting point does the source give for `CCNC(=O)Nc1ccc2ncc(-c3cc(F)ccc3OC)nc2n1` [Compound 93, 1-Ethyl-3-[3-(5-fluoro-2-methoxy-phenyl)-pyrido[2,3-b]pyrazin-6-yl]-urea] here?
The melting point was 253 to 258 °C.

With `CCCNC(=S)Nc1ccc2ncc(Nc3cc(OC)c(OC)c(OC)c3)nc2n1` [Compound 501, 1-Propyl-3-[3-(3,4,5-trimethoxy-phenylamino)-pyrido[2,3-b]pyrazin-6-yl]-thiourea] as the compound, how does the melting point read?
The melting point was 243 °C.

For `CCNC(=O)Nc1ccc2ncc(-c3cccc(N(C)C)c3)nc2n1` [Compound 144, 1-[3-(3-Dimethylamino-phenyl)-pyrido[2,3-b]pyrazin-6-yl]-3-ethyl-urea], which melting point is on record?
The melting point was 240 to 244 °C.

Which melting point does the source give for `O=C(Nc1cnc2ccc(-c3cc(Cl)c(O)c(Cl)c3)nc2n1)Nc1cccs1` [Compound 560, 1-[6-(3,5-Dichloro-4-hydroxy-phenyl)-pyrido[2,3-b]pyrazin-3-yl]-3-thiophen-2-yl-urea] here?
Its melting point is 253 to 255 °C.

With `CCNC(=O)Nc1ccc2ncc(Nc3cccc(C)c3C)nc2n1` [Compound 378, 1-[3-(2,3-Dimethyl-phenylamino)-pyrido[2,3-b]pyrazin-6-yl]-3-ethyl-urea] as the compound, how does the melting point read?
Its melting point is 225 °C.

For `COc1cc(-c2ccc3ncc(NC(=O)N[C@@H]4C[C@H]4c4ccccc4)nc3n2)ccc1O` [Compound 603, 1-[6-(4-Hydroxy-3-methoxy-phenyl)-pyrido[2,3-b]pyrazin-3-yl]-3-((1R,2S)-2-phenyl-cyclopropyl)-urea], which melting point is on record?
Its melting point is 233 to 236 °C.

For `CCNC(=O)Nc1ccc2ncc(-c3ccc(C(=O)OC)c(F)c3)nc2n1` [Compound 143, 4-[6-(3-Ethyl-ureido)-pyrido[2,3-b]pyrazin-3-yl]-2-fluoro-benzoic acid methyl ester], which melting point is on record?
The melting point was 250 to 252 °C.

With `CCNC(=O)Nc1ccc2ncc(-c3ccc(C)c(C)c3)nc2n1` [Compound 142, 1-[3-(3,4-Dimethyl-phenyl)-pyrido[2,3-b]pyrazin-6-yl]-3-ethyl-urea] as the compound, how does the melting point read?
Its melting point is 247 to 249 °C.

For `CCNC(=O)Nc1cnc2ccc(-c3cc(C)c(OC(C)C)c(C)c3)nc2n1` [Compound 597, 1-Ethyl-3-[6-(4-isopropoxy-3,5-dimethyl-phenyl)-pyrido[2,3-b]pyrazin-3-yl]-urea], which melting point is on record?
The melting point was 221 °C.
